System: 1x PBS pH 7.4 stability, LC/MS/MS, 48 h RT
Test: chemical stability in phosphate buffer, ADME assay, biochemical, 1x PBS, pH 7.4 (AID 493010)
Details: stronger effect = lower value

percent remaining | Structure (SMILES)
108% | CC(C)(C)c1ccc(C(=O)Nc2cc(Cl)c(Br)cc2C(=O)O)cc1
124% | CC(C)(C)c1ccc(C(=O)Nc2cc(Cl)c(Cl)cc2C(=O)O)cc1
10.6% | COc1cccc(C2=NN(c3ccc(S(N)(=O)=O)cc3)C(c3ccc(Br)cc3)C2)c1 (centres undefined)
27% | COc1ccc(C2CC(c3ccccc3)=NN2c2ccc(S(N)(=O)=O)cc2)cc1 (centres undefined)

From PubChem BioAssay AID493010 (Sanford-Burnham Center for Chemical Genomics, 2011)
